# Laboratory results reported in patent US20250059179A1, “Heterocyclic Compounds and Methods of Use” (AMGEN INC., priority 2021, published 2025).
# How the values were obtained:
# [1] = biological target: GDP-bound KRAS protein (aa 1-169), containing both G12D and C118A amino acid substitutions (Homo sapiens, UniProt P01116, C118A/G12D); test: KRAS G12D Coupled Nucleotide Exchange Assay; type: biochemical; settings: 2 h compound pre-incubation; SOS-mediated nucleotide exchange, cRAF AlphaScreen readout;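 also: IC50 obtained by fitting the AlphaScreen signal with a four-parameter logistic curve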
# Sequence of GDP-bound KRAS protein (aa 1-169), containing both G12D and C118A amino acid substitutions (P01116 1-169 isoform P01116-2 G12D/C118A): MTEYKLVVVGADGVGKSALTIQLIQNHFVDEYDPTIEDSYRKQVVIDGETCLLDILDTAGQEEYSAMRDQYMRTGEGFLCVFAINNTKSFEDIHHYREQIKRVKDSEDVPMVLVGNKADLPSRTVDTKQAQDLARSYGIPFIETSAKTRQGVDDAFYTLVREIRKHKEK
# [2] = biological target: His-tagged KRAS G12D protein (Homo sapiens, UniProt P01116, G12D); test: KRAS G12D TR-FRET Assay; type: binding; settings: biotinylated KRPep-2d substrate, 10 μM GDP;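 also: europium anti-His antibody paired with streptavidin-d2 as FRET partners, initial 30 min incubation, then peptide 1 h and detection reagents 1 h, all at room temperature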
# Sequence of His-tagged KRAS G12D protein (P01116 1-188 isoform P01116-2 G12D): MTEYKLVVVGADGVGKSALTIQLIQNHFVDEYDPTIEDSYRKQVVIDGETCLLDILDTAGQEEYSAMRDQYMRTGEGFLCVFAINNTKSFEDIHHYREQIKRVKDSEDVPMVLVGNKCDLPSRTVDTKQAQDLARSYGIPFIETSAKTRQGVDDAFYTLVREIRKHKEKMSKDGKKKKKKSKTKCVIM
# [3] = test system: Phosphorylation of ERK1/2 in A-427 cells; test: Phospho-ERK1/2 MSD Assay; type: cell-based; settings: Homo sapiens, A-427, 2 h, 2 h compound treatment, read-out: pERK (A427 cells) IC50
# Method in brief: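 ERK1/2 phosphorylation measured by Meso Scale whole-cell lysate assay after A-427 cells were exposed to a titration of compound for 2 h at 37 °C.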
Compound,Avg 2 h Coupled Exchange IC50 [1] [nM],IC50 [2] [nM],IC50 [3] [nM]
"C=Cc1cc2c(N3[C@@H]4CC[C@H]3CNC4)nc(OC[C@@]34CCCN3C[C@H](F)C4)nc2c(F)c1-c1ccc(F)c2sc(N)nc12 [Example 151, 4-(4-((1R,5S)-3,8-diazabicyclo[3.2.1]octan-8-yl)-8-fluoro-2-(((2R,7aS)-2-fluorotetrahydro-1H-pyrrolizin-7a(5H)-yl)methoxy)-6-vinylquinazolin-7-yl)-7-fluorobenzo[d]thiazol-2-amine]",5,5,33
"CCc1cc2c(N3CCNCC3)nc(OC[C@@H]3CCCN3C)nc2c(F)c1-c1cccc2sc(N)nc12 [Example 152, 4-(6-Ethyl-8-fluoro-2-(((S)-1-methylpyrrolidin-2-yl)methoxy)-4-(piperazin-1-yl)quinazolin-7-yl)benzo[d]thiazol-2-amine]",95,217,> 25000
"CCc1cc2c(N3C[C@H]4CC[C@@H](C3)N4)nc(OC[C@@]34CCCN3C[C@H](F)C4)nc2c(F)c1-c1ccc(F)c2sc(N)nc12 [Example 153, 4-(4-((1R,5S)-3,8-diazabicyclo[3.2.1]octan-3-yl)-6-ethyl-8-fluoro-2-(((2R,7aS)-2-fluorotetrahydro-1H-pyrrolizin-7a(5H)-yl)methoxy)quinazolin-7-yl)-7-fluorobenzo[d]thiazol-2-amine]",6,4,11
"CCc1cc2c(N3[C@@H]4CC[C@H]3CNC4)nc(OC[C@@]34CCCN3C[C@H](F)C4)nc2c(F)c1-c1ccc(F)c2sc(N)nc12 [Example 154, 4-(4-((1R,5S)-3,8-diazabicyclo[3.2.1]octan-8-yl)-6-ethyl-8-fluoro-2-(((2R,7aS)-2-fluorotetrahydro-1H-pyrrolizin-7a(5H)-yl)methoxy)quinazolin-7-yl)-7-fluorobenzo[d]thiazol-2-amine]",4,4,55
"CN1CCC[C@H]1COc1nc2c(F)c(-c3cccc4sc(N)nc34)c(Cl)cc2c(N2CCNCC2)c1C#N [Example 158, 7-(2-aminobenzo[d]thiazol-4-yl)-6-chloro-8-fluoro-2-(((S)-1-methylpyrrolidin-2-yl)methoxy)-4-(piperazin-1-yl)quinoline-3-carbonitrile]",87,414,3290
"N#Cc1c(OCC23CCCN2C[C@H](F)C3)nc2c(F)c(-c3ccc(F)c4sc(N)nc34)c(Cl)cc2c1N1[C@@H]2CC[C@H]1CNC2 (stereo partly drawn) [Example 159, 7-(2-amino-7-fluorobenzo[d]thiazol-4-yl)-4-((1R,5S)-3,8-diazabicyclo[3.2.1]octan-8-yl)-6-chloro-8-fluoro-2-(((2R)-2-fluorotetrahydro-1H-pyrrolizin-7a(5H)-yl)methoxy)quinoline-3-carbonitrile]",88,174,> 10000
"Nc1nc2c(-c3c(Cl)cc4c(N5C[C@H]6CC[C@@H](C5)N6)cc(OC[C@@]56CCCN5C[C@H](F)C6)nc4c3F)ccc(F)c2s1 [Example 161, 4-(4-((1R,5S)-3,8-Diazabicyclo[3.2.1]octan-3-yl)-6-chloro-8-fluoro-2-(((2R,7aS)-2-fluorotetrahydro-1H-pyrrolizin-7a(5H)-yl)methoxy)quinolin-7-yl)-7-fluorobenzo[d]thiazol-2-amine]",24,57,5790
